Measured values reported in patent US20220073536A1 (Rigel Pharmaceuticals, Inc., priority 2003, published 2022).

Columns and labels:
[1] = test system: cultured human mast cells (CHMC); assay: CHMC low cell density ionomycin activation: tryptase assay; format: cell-based; details: low cell density CHMC, 3 pt, read-out: LD Tryptase, CHMC, Iono, 3 pt
[2] = test system: cultured human mast cells (CHMC); assay: CHMC low cell density IgE activation: tryptase assay; format: cell-based; details: low cell density CHMC, IgE activation
In short: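 Tryptase release, fluorogenic substrate, 30 min RT. Prior anti-IgE stimulation of CHMC, 30 min, 37 °C, after 1 hr preincubation at 1000–1500 cells/well in MT; unstimulated wells received MT.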

[3] = tryptase, 3 pt, read-out: LD Tryptase, CHMC, IgE, 3 pt
[4] = Homo sapiens, Mast cell, tryptase release
[5] = Homo sapiens, Mast cell, tryptase release, 3 pt, read-out: LD Tryptase, CHMC, IgE, 3 pt
[6] = Homo sapiens, Mast cell, tryptase release, 8 pt, read-out: LD Tryptase, CHMC, IgE, 8 pt
[7] = tryptase release, 3 pt, read-out: LD Tryptase, CHMC, IgE, 3 pt
[8] = tryptase release, 8 pt, read-out: LD Tryptase, CHMC, IgE, 8 pt

Row | Compound | IC50 [1, 4] [µM] | IC50 [2, 5] [µM] | IC50 [2, 6] [µM] | further results
1 | NC1CCOc2ccc(Nc3nc(Nc4cccc(-c5cnco5)c4)ncc3F)cc21 (racemic) [Compound 1292, (R,S)-N4-[4-Amino-3,4-dihydro-2H-1-benzopyran-6-yl]-5-fluoro-N2-[3-(oxazol-5-yl)phenyl]-2,4-pyrimidinediamine] | – | – | – | IC50 ([1]; tryptase): > 10 µM; IC50 [2, 3]: < 10 µM; IC50 ([2]; tryptase, 8 pt, read-out: LD Tryptase, CHMC, IgE, 8 pt): < 10 µM
2 | CNC(=O)CNC(=O)c1ccc(Nc2ncc(F)c(Nc3ccc4c(c3)C(NC(=O)OC(C)(C)C)CCO4)n2)cc1 (racemic) [Compound 1298, (R,S)-N4-[4-(N-tert-Butoxycarbonyl)amino-3,4-dihydro-2H-1-benzopyran-6-yl]-5-fluoro-N2-[4-[N-(N-methylamino)carbonylmethylene]aminocarbonylphenyl]-2,4-pyrimidinediamine] | – | – | – | IC50 ([1]; tryptase): > 10 µM; IC50 [2, 3]: < 10 µM
3 | COc1cc(C)c(Nc2ncc(F)c(Nc3ccc4c(c3)NC(=O)[C@H](C)O4)n2)cc1Cl [Compound 214] | > 10 | < 10 | < 10 | –
4 | COc1cc(OC)c(-c2nc(N)nc(Nc3ccc4c(c3)NC(=O)[C@H](C)O4)c2F)cc1Cl [Compound 215] | > 10 | < 10 | < 10 | –
5 | COc1cc(C)c(Nc2ncc(F)c(Nc3ccc4c(c3)NC(C)(C)CO4)n2)cc1Cl [Compound 216, N2-(3-Chloro-4-methoxy-6-methylphenyl)-N4-(3,4-dihydro-3,3-dimethyl-2H,4H-benz[1,4]oxazin-6-yl)-5-fluoro-2,4-pyrimidinediamine] | – | – | – | IC50 ([1]; tryptase release): > 10 µM; IC50 [2, 7]: < 10 µM; IC50 [2, 8]: < 10 µM
6 | Fc1cnc(Nc2cccc(-c3ncco3)c2)nc1Nc1ccc2c(c1)NCCO2 [Compound 217, N4-(3,4-Dihydro-2H,4H-benz[1,4]oxazin-6-yl)-5-fluoro-N2-[3-(oxazol-2-yl)phenyl]-2,4-pyrimidinediamine] | – | – | – | IC50 ([1]; tryptase release): > 10 µM; IC50 [2, 7]: < 10 µM; IC50 [2, 8]: < 10 µM
7 | CC1(C)COc2ccc(Nc3nc(Nc4cccc(-c5ncco5)c4)ncc3F)cc2N1 [Compound 218, N4-(3,4-Dihydro-3,3-dimethyl-2H,4H-benz[1,4]oxazin-6-yl)-5-fluoro-N2-[3-(oxazol-2-yl)phenyl]-2,4-pyrimidinediamine] | – | – | – | IC50 ([1]; tryptase release): > 10 µM; IC50 [2, 7]: < 10 µM; IC50 [2, 8]: < 10 µM
8 | Fc1cnc(Nc2ccc(-c3cnco3)cc2)nc1Nc1ccc2c(c1)NCCO2 [Compound 222, N4-(3,4-Dihydro-2H,4H-Benz[1,4]oxazin-6-yl)-5-fluoro-N2-[4-(oxazol-5-yl)phenyl]-2,4-pyrimidinediamine] | – | – | – | IC50 ([1]; tryptase release): > 10 µM; IC50 [2, 7]: < 10 µM; IC50 [2, 8]: < 10 µM
9 | CC1(C)COc2ccc(Nc3nc(Nc4ccc(-c5cnco5)cc4)ncc3F)cc2N1 [Compound 223, N4-(3,4-Dihydro-3,3-dimethyl-2H,4H-benz[1,4]oxazin-6-yl)-5-fluoro-N2-[4-(oxazol-5-yl)phenyl]-2,4-pyrimidinediamine] | – | – | – | IC50 ([1]; tryptase release): > 10 µM; IC50 [2, 7]: < 10 µM; IC50 [2, 8]: < 10 µM
10 | C[C@@H]1Oc2ccc(Nc3nc(Nc4ccc(-c5cnco5)cc4)ncc3F)cc2NC1=O [Compound 225] | – | – | – | IC50 ([1]; tryptase release): > 10 µM; IC50 [2, 7]: < 10 µM; IC50 [2, 8]: < 10 µM
11 | CN1CCOc2ccc(Nc3nc(Nc4ccc(-c5cnco5)cc4)ncc3F)cc21 [Compound 228] | > 10 | < 10 | < 10 | –
12 | CN1CCOc2cc(Nc3nc(Nc4ccc(-c5cnco5)cc4)ncc3F)ccc21 [Compound 229] | > 10 | < 10 | < 10 | –
13 | CN1C(=O)COc2cc(Nc3nc(Nc4ccc(-c5cnco5)cc4)ncc3F)ccc21 [Compound 230] | > 10 | > 10 | > 10 | –
14 | CN1C(=O)COc2ccc(Nc3nc(Nc4ccc(-c5cnco5)cc4)ncc3F)cc21 [Compound 231] | > 10 | > 10 | > 10 | –
15 | Fc1cnc(Nc2cccc(-c3cnco3)c2)nc1Nc1ccc2c(c1)NCCO2 [Compound 232, N4-(3,4-Dihydro-2H,4H-benz[1,4]oxazin-6-yl)-5-fluoro-N2-[3-(oxazol-5-yl)phenyl]-2,4-pyrimidinediamine] | – | – | – | IC50 ([1]; tryptase release): > 10 µM; IC50 [2, 7]: < 10 µM; IC50 [2, 8]: < 10 µM
16 | CC1(C)COc2ccc(Nc3nc(Nc4cccc(-c5cnco5)c4)ncc3F)cc2N1 [Compound 233, N4-(3,4-Dihydro-3,3-dimethyl-2H,4H-benz[1,4]oxazin-6-yl)-5-fluoro-N2-[3-(oxazol-5-yl)phenyl]-2,4-pyrimidinediamine] | – | – | – | IC50 ([1]; tryptase release): > 10 µM; IC50 [2, 7]: < 10 µM; IC50 [2, 8]: < 10 µM
17 | O=C1COc2cc(Nc3nc(Nc4cccc(-c5cnco5)c4)ncc3F)ccc2N1 [Compound 234] | > 10 | < 10 | < 10 | –
18 | O=C1Nc2cc(Nc3nc(Nc4cccc(-c5cnco5)c4)ncc3F)ccc2OC1CCO (centres unmarked) [Compound 235] | > 10 | < 10 | < 10 | –
19 | CN1CCOc2ccc(Nc3nc(Nc4cccc(-c5cnco5)c4)ncc3F)cc21 [Compound 236] | > 10 | < 10 | – | –
20 | CN1CCOc2cc(Nc3nc(Nc4cccc(-c5cnco5)c4)ncc3F)ccc21 [Compound 237] | > 10 | < 10 | – | –
21 | CC1(C)COc2ccc(Nc3nc(Nc4ccc(-c5ncco5)cc4)ncc3F)cc2N1 [Compound 238, N4-(3,4-Dihydro-3,3-dimethyl-2H,4H-benz[1,4]oxazin-6-yl)-5-fluoro-N2-[4-(oxazol-2-yl)phenyl]-2,4-pyrimidinediamine] | – | – | – | IC50 ([1]; tryptase release): > 10 µM; IC50 [2, 7]: < 10 µM; IC50 [2, 8]: < 10 µM

Continued, in another order:

Row | IC50 [1, 4] [µM] | IC50 [2, 5] [µM] | IC50 [2, 6] [µM] | Compound | further results
22 | > 10 | < 10 | < 10 | O=C1COc2ccc(Nc3nc(Nc4cccc(-c5ncco5)c4)ncc3F)cc2N1 [Compound 219] | –
23 | > 10 | < 10 | < 10 | O=C1COc2cc(Nc3nc(Nc4cccc(-c5ncco5)c4)ncc3F)ccc2N1 [Compound 220] | –
24 | > 10 | < 10 | < 10 | O=C1Nc2cc(Nc3nc(Nc4cccc(-c5ncco5)c4)ncc3F)ccc2OC1CCO (centres unmarked) [Compound 221] | –
25 | > 10 | < 10 | < 10 | O=C1COc2ccc(Nc3nc(Nc4ccc(-c5cnco5)cc4)ncc3F)cc2N1 [Compound 224] | –
26 | > 10 | < 10 | < 10 | O=C1COc2cc(Nc3nc(Nc4ccc(-c5cnco5)cc4)ncc3F)ccc2N1 [Compound 226] | –
27 | > 10 | < 10 | < 10 | O=C1Nc2cc(Nc3nc(Nc4ccc(-c5cnco5)cc4)ncc3F)ccc2OC1CCO (centres unmarked) [Compound 227] | –
28 | > 10 | < 10 | < 10 | O=C1COc2ccc(Nc3nc(Nc4ccc(-c5ncco5)cc4)ncc3F)cc2N1 [Compound 239] | –
29 | > 10 | < 10 | < 10 | C[C@@H]1Oc2ccc(Nc3nc(Nc4ccc(-c5ncco5)cc4)ncc3F)cc2NC1=O [Compound 240] | –
30 | > 10 | > 10 | – | O=C1COc2cc(Nc3nc(Nc4ccc(-c5ncco5)cc4)ncc3F)ccc2N1 [Compound 241] | –
31 | > 10 | < 10 | < 10 | O=C1Nc2cc(Nc3nc(Nc4ccc(-c5ncco5)cc4)ncc3F)ccc2OC1CCO (centres unmarked) [Compound 242] | –
